One may read the IC50 as the concentration needed to halve the response being measured. A high value points to weaker potency.

One assay concerns the target T1, OTR (Homo sapiens, UniProt P30559).
T1 construct: expressed in transfected cells; host or cells: OTR/HEK293 stably transfected cell line
T1 sequence (P30559 1-389): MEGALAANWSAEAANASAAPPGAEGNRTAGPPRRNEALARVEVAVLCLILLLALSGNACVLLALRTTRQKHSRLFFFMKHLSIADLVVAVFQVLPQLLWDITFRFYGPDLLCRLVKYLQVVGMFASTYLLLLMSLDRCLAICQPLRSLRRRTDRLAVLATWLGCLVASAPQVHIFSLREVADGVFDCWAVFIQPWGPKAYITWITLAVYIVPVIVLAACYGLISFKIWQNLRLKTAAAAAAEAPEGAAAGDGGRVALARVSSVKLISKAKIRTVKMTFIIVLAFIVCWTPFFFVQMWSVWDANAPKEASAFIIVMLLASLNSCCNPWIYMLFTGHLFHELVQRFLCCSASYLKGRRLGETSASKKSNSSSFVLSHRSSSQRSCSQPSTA
The experiment in a line: Ca2+ mobilization in cells stably expressing OTR (FLIPR, antagonist mode). Format: cell-based. As to conditions: OTR/HEK293 stably transfected cell line. In outline:
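OTR/HEK293 stable cells (20,000 per well) were loaded with Fluo-4 Direct plus probenecid. Cells were pre-exposed to 10-point, 3-fold compound dilutions before agonist challenge at EC80, determined beforehand per cell line. FLIPR calcium fluorescence (Max-Min) was fitted in Prism.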
A general note: Calcium flux is commonly read through the fluorescence of an indicator in the cells.

Another assay addresses T2, V1aR (Homo sapiens, UniProt P37288).
T2 construct: expressed in transfected cells; host or cells: V1a-CHO stably transfected cell line
The experiment in a line: Ca2+ mobilization in cells stably expressing V1aR (FLIPR, antagonist mode). Format: cell-based. The following applies: V1a-CHO stably transfected cell line. An excerpt: Test Example 2. Determination of the Effect of the Compound of the Present Disclosure on Ca^2+ Mobilization in Cells Stably Expressing V1aR
To measure the antagonistic effect of the compound of the present disclosure on V1aR activity expressed in the V1a-CHO stably transfected cell line.
• F-12 (Hyclone, SH30026.01) • FLIPR CALCIUM 6 ASSAY KIT (Molecul Device, R8191) • Fetal Bovine Serum (FBS) (AusGeneX, FBS500-S) • Hygromycin B (Solarbio, H8080-1g) • DMSO (Sigma, D4540) • HBSS (Gibco 14025-092) • Probenecid (MCE, HY—B0545) • 0.36 mL 96 Round V-bottom Deep Well Plates for Laboratory (Biaosen P-0.36-BSA-96) • 384-well conical bottom polypropylene plate (Nunc, 264573) • Corning® 384-well Flat Clear Bottom Black Polystyrene TC-treated Microplates (Corning 3764)
• Biological safety cabinet (ECSO, AC2-6S1-TC) • Carbon dioxide cell incubator (ECSO, CCI-170B-8) • Inverted microscope (Olympus, CKX53) • Microplate low-speed centrifuge (Xiangzhi, TD5B) • FLIPR® Penta (Molecul Device, 5.0)
• 1. Cell plating: V1a-CHO cells were digested and harvested, resuspended and counted, and then inoculated into a 384-well cell plate at a density of: 1.2×10^4 cells/25 μL/well. The cell plate was then incubated in an incubator at 37° C. with 5% CO2 for about 16-20 h. • 2. The next day: after preparing Assay Buffer, 20× Component A was thawed to room temperature, diluted with Assay buffer to 1× loading buffer, and placed at room temperature for later use. • 3. The medium was removed from the cell plate, and 40 μL of 1× loading buffer was quickly added to each well. After centrifugation, the cell plate was incubated at 37° C. in the dark for 120 minutes. • 4. The serially diluted positive compound, serially diluted test compound, and agonist working solution were formulated. After mixing the serially diluted positive compound/serially diluted test compound with the agonist at a 1:1 ratio, 20 μL per well was transferred to a 384-well compound source plate. • 5. The cell plate, agonist source plate, and pipette tips were placed into their respective positions in the FLIPR instrument. Using FLIPR Tetra, 10 μL of the diluted agonist from Step 4 was added to each test well, and the data were collected at a wavelength of 515 nm-575 nm. • 6. The signal values were plotted against the compound concentrations, and the curve fitting and IC50 calculation were performed using the nonlinear regression method of GraphPad Prism software.

Structures are written as SMILES.

T2 sequence (P37288 whole entry, species assumed): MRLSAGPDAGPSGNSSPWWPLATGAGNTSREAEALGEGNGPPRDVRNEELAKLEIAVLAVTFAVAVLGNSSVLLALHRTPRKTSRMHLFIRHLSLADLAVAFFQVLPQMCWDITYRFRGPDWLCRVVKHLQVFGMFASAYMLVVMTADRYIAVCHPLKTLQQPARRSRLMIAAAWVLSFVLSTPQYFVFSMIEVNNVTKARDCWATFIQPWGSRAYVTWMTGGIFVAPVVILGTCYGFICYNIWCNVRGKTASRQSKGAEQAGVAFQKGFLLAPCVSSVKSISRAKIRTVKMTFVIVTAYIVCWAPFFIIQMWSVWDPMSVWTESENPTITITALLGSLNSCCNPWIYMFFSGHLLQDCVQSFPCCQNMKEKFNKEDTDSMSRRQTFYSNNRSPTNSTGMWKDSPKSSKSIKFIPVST

On to `CO/N=C1/C[C@@H](CO)N(C(=O)c2cnc(-c3cccc(Cl)c3C)cn2)C1` [Example C0041, (S, Z)-(5-(3-Chloro-2-methylphenyl)pyrazin-2-yl)(2-(hydroxymethyl)-4-(methoxyimino)pyrrolidin-1-yl)methanone], for which the figures for the 50% inhibitory concentration (IC50) against OTR and at V1aR were 49.3 nM and 1750 nM, respectively.

For the compound `CO/N=C1/C[C@@H](CO)N(C(=O)c2ccc(-c3cccc(C(F)F)c3C)c3c2OCO3)C1` [Example C0118, (S, Z)-(7-(3-(Difluoromethyl)-2-methylphenyl)benzo[d][1,3]dioxolan-4-yl)(2-(hydroxymethyl)-4-(methoxyimino)pyrrolidin-1-yl)methanone], the IC50 was found to be 32.9 nM at OTR and 1140 nM at V1aR.

Turning to `CO/N=C1/C[C@@H](CO)N(C(=O)c2ccc(-c3cccc(C#N)c3C)c3c2OCCO3)C1` [Example C0133, (S,Z)-3-(8-(2-(Hydroxymethyl)-4-(methoxyimino)pyrrolidine-1-carbonyl)-2,3-dihydrobenzo[b][1,4]dioxin-5-yl)-2-methylbenzonitrile], the values for the half-maximal inhibitory concentration (IC50) at OTR and against V1aR were 8.19 nM and 2350 nM, respectively.

For `CO/N=C1/C[C@@H](CO)N(C(=O)c2ccc(-c3cccc(C#N)c3C)c(Cl)c2)C1` [Example A0246, 3-(2-Chloro-4-[(2S,4Z)-2-(hydroxymethyl)-4-(methoxyimino)pyrrolidine-1-carbonyl]phenyl)-2-methylbenzonitrile], the IC50 against OTR turned out to be 24.1 nM; against V1aR it was 1850 nM.

`CO/N=C1/C[C@@H](CO)N(C(=O)c2ccc(-c3cccc(OC)c3C)cc2)C1` [Example C0066, (S, Z)-(2-(Hydroxymethyl)-4-(methoxyimino)pyrrolidin-1-yl)(3′-methoxy-2′-methyl-[1,1′-biphenyl]-4-yl)methanone]: the half-inhibitory concentration (IC50) against OTR worked out at 72.9 nM; against V1aR, 2160 nM.

As to `CO/N=C1/C[C@@H](CO)N(C(=O)c2ccc(-c3cccc(C#N)c3Cl)c3c2OCCO3)C1` [Example C0154, (S,Z)-2-Chloro-3-(8-(2-(hydroxymethyl)-4-(methoxyimino)pyrrolidine-1-carbonyl)-2,3-dihydrobenzo[b][1,4]dioxin-5-yl)benzonitrile], the concentration for half-maximal inhibition (IC50) was 5.32 nM on OTR and 1610 nM on V1aR.

Regarding `CO/N=C1/C[C@@H](CO)N(C(=O)c2ccc(-c3cccc(C)c3C)c(C(=O)NC3COC3)c2)C1` [Example A0157, (S, Z)-4-(2-(Hydroxymethyl)-4-(methoxyimino)pyrrolidine-1-carbonyl)-2′, 3′-dimethyl-N-(oxetan-3-yl)-[1,1′-biphenyl]-2-carboxamide], the IC50 is 119 nM against OTR and 6740 nM at V1aR.

`CO/N=C1\CN(C(=O)c2ccc(-c3ccccc3C)cc2)[C@](C)(CO)C1` [Example C0021, (S, Z)-(2-(Hydroxymethyl)-4-(methoxyimino)-2-methylpyrrolidin-1-yl)(2′-methyl-[1,1′-biphenyl]-4-yl)methanone]: the IC50 was found to be 74 nM against OTR and 862 nM at V1aR.

Take `CO/N=C1/C[C@@H]([C@H](C)O)N(C(=O)c2ccc(-c3cccc(C#N)c3C)cc2)C1` (single isomer, unassigned) [Example C0111]: the IC50 at OTR stood at 12.6 nM; at V1aR, 2350 nM.

For `CO/N=C1/C[C@@H](CO)N(C(=O)c2ccc(-c3cccc(C#N)c3C)cc2OC)C1` [Example A0243], the values for the half-maximal inhibitory concentration (IC50) against OTR and on V1aR were 34.1 nM and 7360 nM, respectively.

Regarding `CO/N=C1/C[C@@H](CO)N(C(=O)c2cnc(-c3cccc(C)c3C)cn2)C1` [Example A0061, (S, Z)-(5-(2,3-Dimethylphenyl)pyrazin-2-yl)(2-(hydroxymethyl)-4-(methoxyimino)pyrrolidin-1-yl)methanone], the 50% inhibitory concentration (IC50) against OTR is 99.8 nM; against V1aR, 2390 nM.

With `CO/N=C1\C[C@@H](CO)N(C(=O)c2ccc(-c3cccc(C)c3C)cc2)C1` [Example C0035, (S,E)-(2′,3′-Dimethyl-[1,1′-biphenyl]-4-yl)(2-(hydroxymethyl)-4-(methoxyimino)pyrrolidin-1-yl)methanone], the half-inhibitory concentration (IC50) against OTR was 81.2 nM; on V1aR, 661 nM.

As to `CO/N=C1\C[C@@H](CO)N(C(=O)c2ccc(-c3cccc(C#N)c3C)c3c2OCCO3)C1` [Example C0132, (S,E)-3-(8-(2-(Hydroxymethyl)-4-(methoxyimino)pyrrolidine-1-carbonyl)-2,3-dihydrobenzo[b][1,4]dioxin-5-yl)-2-methylbenzonitrile], the concentration for half-maximal inhibition (IC50) at OTR worked out at 11.4 nM; against V1aR it was 8370 nM.

Take `CO/N=C1/C[C@@H](CO)N(C(=O)c2ccc(-c3ccc(C#N)c(C)c3C)cc2)C1` [Example C0075, (S, Z)-4′-(2-(Hydroxymethyl)-4-(methoxyimino)pyrrolidine-1-carbonyl)-2,3-dimethyl-[1,1′-biphenyl]-4-carbonitrile]: the IC50 on OTR came to 46.8 nM; on V1aR, 20000 nM.

As to `CO/N=C1/C[C@@H](CO)N(C(=O)c2ccc(-c3c(F)ccc(C#N)c3C)c3c2OCCO3)C1` [Example C0150, 4-Fluoro-3-(8-((S,Z)-2-(hydroxymethyl)-4-(methoxyimino)pyrrolidine-1-carbonyl)-2,3-dihydrobenzo[b][1,4]dioxin-5-yl)-2-methylbenzonitrile], the figures for the IC50 against OTR and against V1aR were 7.07 nM and 4050 nM, respectively.

Turning to `CO/N=C1/C[C@@H](CO)N(C(=O)c2ccc(-c3cccc(C#N)c3C)c(OC)n2)C1` [Example A0215, 3-(6-[(2S, 4Z)-2-(Hydroxymethyl)-4-(methoxyimino)pyrrolidine-1-carbonyl]-2-methoxypyridin-3-yl)-2-methylbenzonitrile], the results for the IC50 at OTR and on V1aR were 58.7 nM and 11200 nM, respectively.

Consider `CO/N=C1/C[C@@H](CO)N(C(=O)c2ccc(-c3cccc(C(F)F)c3C)cc2)C1` [Example C0079, (S, Z)-(3′-(Difluoromethyl)-2′-methyl-[1,1′-biphenyl]-4-yl)(2-(hydroxymethyl)-4-(methoxyimino)pyrrolidin-1-yl)methanone], for which the IC50 turned out to be 27.7 nM against OTR and 930 nM on V1aR.

With `CO/N=C1/C[C@@H](CO)N(C(=O)c2ccc(-c3cccc(C#N)c3C)c(OC)c2)C1` [Example A0242, (S,Z)-4′-(2-(Hydroxymethyl)-4-(methoxyimino)pyrrolidine-1-carbonyl)-2′-methoxy-2-methyl-[1,1′-biphenyl]-3-carbonitrile], the results for the IC50 on OTR and on V1aR were 10.8 nM and 1550 nM, respectively.

For the compound `CO/N=C1/C[C@@H](CO)N(C(=O)c2ccc(-c3cccc(C#N)c3C)c(F)c2)C1` [Example C0158, (S,Z)-2′-Fluoro-4′-(2-(hydroxymethyl)-4-(methoxyimino)pyrrolidine-1-carbonyl)-2-methyl-[1,1′-biphenyl]-3-carbonitrile], the IC50 against OTR was 17.2 nM; against V1aR, 520 nM.

With `CO/N=C1/C[C@@H](CO)N(C(=O)c2cc(F)c(-c3cccc(C#N)c3C)c3c2OCCO3)C1` [Example C0160, 3-(6-Fluoro-8-((S,Z)-2-(hydroxymethyl)-4-(methoxyimino)pyrrolidine-1-carbonyl)-2,3-dihydrobenzo[b][1,4]dioxin-5-yl)-2-methylbenzonitrile], the half-inhibitory concentration (IC50) was found to be 21.9 nM against OTR and 529 nM at V1aR.

As for `CO/N=C1/C[C@@H](CO)N(C(=O)c2ccc(-c3cccc(C)c3C)cc2)C1` [Example C0036, (S,Z)-(2′,3′-Dimethyl-[1,1′-biphenyl]-4-yl)(2-(hydroxymethyl)-4-(methoxyimino)pyrrolidin-1-yl)methanone], the IC50 on OTR turned out to be 32.1 nM; against V1aR, 790 nM.
